In one experiment the target is T1, Axl (Homo sapiens, UniProt P30530).
T1 construct: purchased Life Technologies
T1 sequence (P30530 26-894): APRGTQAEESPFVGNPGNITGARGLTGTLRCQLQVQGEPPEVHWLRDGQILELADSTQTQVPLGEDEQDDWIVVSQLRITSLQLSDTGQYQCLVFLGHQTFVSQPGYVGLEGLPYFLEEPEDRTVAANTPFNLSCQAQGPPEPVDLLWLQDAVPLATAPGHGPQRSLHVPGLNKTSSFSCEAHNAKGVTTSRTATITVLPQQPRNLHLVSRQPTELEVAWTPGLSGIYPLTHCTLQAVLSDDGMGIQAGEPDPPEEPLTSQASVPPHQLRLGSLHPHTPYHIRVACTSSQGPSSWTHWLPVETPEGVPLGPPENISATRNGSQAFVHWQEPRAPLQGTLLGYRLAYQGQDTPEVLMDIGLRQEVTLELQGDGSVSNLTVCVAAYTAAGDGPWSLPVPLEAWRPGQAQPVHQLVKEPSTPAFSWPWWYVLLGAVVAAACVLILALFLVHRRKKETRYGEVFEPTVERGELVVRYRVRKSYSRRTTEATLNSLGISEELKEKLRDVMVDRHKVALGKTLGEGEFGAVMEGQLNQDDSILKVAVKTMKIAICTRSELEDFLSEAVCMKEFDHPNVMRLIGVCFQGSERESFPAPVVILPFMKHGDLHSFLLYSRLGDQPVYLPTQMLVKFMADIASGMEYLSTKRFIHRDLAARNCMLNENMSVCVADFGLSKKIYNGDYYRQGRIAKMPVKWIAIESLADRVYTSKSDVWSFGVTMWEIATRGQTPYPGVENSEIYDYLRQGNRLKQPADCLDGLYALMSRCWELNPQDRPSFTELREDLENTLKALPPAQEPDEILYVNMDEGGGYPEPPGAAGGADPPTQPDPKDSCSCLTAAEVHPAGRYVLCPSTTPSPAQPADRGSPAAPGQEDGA
Description: LanthaScreen Eu kinase binding assay, Axl. The conditions noted are these: Tracer 236.

Another experiment concerns the target T2, Mer (Homo sapiens, UniProt Q12866).
T2 construct: purchased Life Technologies
T2 sequence (Q12866 21-999): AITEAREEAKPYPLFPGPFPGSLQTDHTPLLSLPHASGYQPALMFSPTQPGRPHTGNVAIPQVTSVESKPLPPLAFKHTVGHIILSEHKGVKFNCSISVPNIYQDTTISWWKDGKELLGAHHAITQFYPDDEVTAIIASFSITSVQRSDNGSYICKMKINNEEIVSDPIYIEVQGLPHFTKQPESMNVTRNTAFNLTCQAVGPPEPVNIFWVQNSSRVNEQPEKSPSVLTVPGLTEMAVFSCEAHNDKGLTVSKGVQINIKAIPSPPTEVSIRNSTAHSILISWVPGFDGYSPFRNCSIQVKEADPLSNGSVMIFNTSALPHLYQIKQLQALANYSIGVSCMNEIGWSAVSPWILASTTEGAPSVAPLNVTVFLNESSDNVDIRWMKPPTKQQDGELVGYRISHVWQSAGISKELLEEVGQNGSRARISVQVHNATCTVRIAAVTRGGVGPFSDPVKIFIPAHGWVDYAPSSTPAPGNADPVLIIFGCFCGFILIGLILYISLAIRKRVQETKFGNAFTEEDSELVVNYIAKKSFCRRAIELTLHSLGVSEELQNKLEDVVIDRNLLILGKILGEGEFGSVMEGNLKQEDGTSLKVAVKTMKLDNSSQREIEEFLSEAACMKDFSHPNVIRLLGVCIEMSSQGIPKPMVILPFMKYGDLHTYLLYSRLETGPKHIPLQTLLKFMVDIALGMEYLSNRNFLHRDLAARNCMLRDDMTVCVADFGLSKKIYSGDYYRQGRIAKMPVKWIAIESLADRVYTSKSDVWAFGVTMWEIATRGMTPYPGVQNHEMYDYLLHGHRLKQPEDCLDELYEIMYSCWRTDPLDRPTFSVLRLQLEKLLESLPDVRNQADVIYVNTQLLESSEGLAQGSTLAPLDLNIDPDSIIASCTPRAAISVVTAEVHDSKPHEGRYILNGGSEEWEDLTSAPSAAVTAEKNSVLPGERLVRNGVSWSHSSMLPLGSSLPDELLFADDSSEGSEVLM
The experiment is described as follows: LanthaScreen Eu kinase binding assay, Mer. The conditions noted are these: Tracer 236. A general note: Time-resolved FRET reads energy transfer from a long-lived donor to a nearby acceptor.

38 compounds from patent US10934274B2, “Quinoline derivatives as TAM RTK inhibitors” (Qurient Co., Ltd., priority 2015, dated 2021) can be followed below.

The Kd is the concentration at which binding is half-saturated. Low readings indicate tighter binding, high ones weaker binding.

Take `CCOc1cn(-c2cnccc2Cl)nc1C(=O)Nc1ccc(Oc2ccnc3cc(OC)c(OC)cc23)cn1` [Compound 183]: the equilibrium dissociation constant (Kd) at Axl and at Mer was less than 0.1 µM throughout.
As to `CCOc1cn(-c2cnccc2CO)nc1C(=O)Nc1ccc(Oc2ccnc3cc(OC)c(OC)cc23)cn1` [Compound 179], the Kd at Axl and on Mer was less than 0.1 µM in each case.
`CCOc1cn(-c2noc(C)n2)nc1C(=O)Nc1ccc(Oc2ccnc3cc(OC)c(OC)cc23)cn1` [Compound 161]: the equilibrium dissociation constant (Kd) at Axl and at Mer was less than 0.1 µM in each case.
For `CCOc1cn(-c2ccc(OC(F)(F)F)cc2C)nc1C(=O)Nc1ccc(Oc2ccnc3cc(OC)c(OC)cc23)cn1` [Compound 113], the equilibrium dissociation constant (Kd) at Axl and on Mer was less than 0.1 µM in each case.
On to `CCOc1cn(-c2cnccc2C(F)(F)F)nc1C(=O)Nc1ccc(Oc2ccnc3cc(OC)c(OC)cc23)c(F)c1` [Compound 198], for which the dissociation constant Kd on Axl and on Mer was less than 0.1 µM in each case.
Regarding `CCOc1cn(-c2c(C)cc(C)cc2C)nc1C(=O)Nc1ccc(Oc2ccnc3cc(OC)c(OC)cc23)cn1` [Compound 117], the equilibrium dissociation constant (Kd) on Axl and at Mer was less than 0.1 µM throughout.
Turning to `CCOc1cn(-c2nccnc2C(F)(F)F)nc1C(=O)Nc1ccc(Oc2ccnc3cc(OC)c(OC)cc23)cn1` [Compound 162], the Kd on Axl and on Mer was less than 0.1 µM each time.
In the case of `CCOc1cn(-c2cnccc2C(C)(C)O)nc1C(=O)Nc1ccc(Oc2ccnc3cc(OC)c(OC)cc23)cn1` [Compound 184], the dissociation constant Kd on Axl and on Mer was less than 0.1 µM in each case.
With `CCOc1cn(-c2cnccc2C(C)(C)O)nc1C(=O)Nc1ccc(Oc2ccnc3cc(OC)c(OC)cc23)c(F)c1` [Compound 195], the equilibrium dissociation constant (Kd) on Axl and at Mer was less than 0.1 µM each time.
Consider `CCOc1cn(-c2ccc(F)cc2CC)nc1C(=O)Nc1ccc(Oc2ccnc3cc(OC)c(OC)cc23)cn1` [Compound 112], for which the equilibrium dissociation constant (Kd) at Axl and on Mer was less than 0.1 µM each time.
`CCOc1cn(-c2cnccc2C)nc1C(=O)Nc1ccc(Oc2ccnc3cc(OC)c(OC)cc23)nn1` [Compound 210]: the Kd at Axl and on Mer was less than 0.1 µM in each case.
`CCOc1cn(-c2ccc(C(C)C)cc2)nc1C(=O)Nc1ccc(Oc2ccnc3cc(OC)c(OC)cc23)cn1` [Compound 116]: the dissociation constant (Kd) on Axl and at Mer was less than 0.1 µM in each case.
As for `CCOc1cn(-c2cnc(N)nc2)nc1C(=O)Nc1ccc(Oc2ccnc3cc(OC)c(OC)cc23)cn1` [Compound 10], the equilibrium dissociation constant (Kd) on Axl and on Mer was less than 0.1 µM each time.
Take `CCOc1cn(-c2ccc(C)cc2F)nc1C(=O)Nc1ccc(Oc2ccnc3cc(OC)c(OC)cc23)cn1` [Compound 100]: the Kd on Axl and at Mer was less than 0.1 µM each time.
Take `CCOc1cn(-c2cnccc2C(C)=O)nc1C(=O)Nc1ccc(Oc2ccnc3cc(OC)c(OC)cc23)cn1` [Compound 182]: the Kd on Axl and at Mer was less than 0.1 µM throughout.
Turning to `CCOc1cn(-c2ccc(C(C)C)cc2F)nc1C(=O)Nc1ccc(Oc2ccnc3cc(OC)c(OC)cc23)cn1` [Compound 127], the dissociation constant Kd on Axl and on Mer was less than 0.1 µM each time.
For the compound `CCOc1cn(-c2cccnc2)nc1C(=O)Nc1ccc(Oc2ccnc3cc(OC(C)C)c(OC)cc23)cn1` [Compound 208], the Kd on Axl and on Mer was less than 0.1 µM each time.
Regarding `CCOc1cnn(-c2cncs2)c1C(=O)Nc1ccc(Oc2ccnc3cc(OC)c(OC)cc23)cn1` [Compound 16], the Kd on Axl and on Mer was less than 0.1 µM throughout.
Consider `CCOc1cn(-c2cnc(C)cn2)nc1C(=O)Nc1ccc(Oc2ccnc3cc(OC)c(OC)cc23)cn1` [Compound 160], for which the dissociation constant (Kd) at Axl and on Mer was less than 0.1 µM throughout.
`CCOc1cn(-c2cnccc2C)nc1C(=O)Nc1ccc(Oc2ccnc3cc(OC)c(OC)cc23)cc1F` [Compound 151]: the Kd at Axl and at Mer was less than 0.1 µM each time.
`CCOc1cn(-c2cnc(OC)nc2)nc1C(=O)Nc1ccc(Oc2ccnc3cc(OC)c(OC)cc23)cn1` [Compound 148]: the Kd on Axl and at Mer was less than 0.1 µM in each case.
Take `CCOc1cn(-c2ccc(F)c(CO)c2)nc1C(=O)Nc1ccc(Oc2ccnc3cc(OC)c(OC)cc23)cn1` [Compound 128]: the Kd at Axl and on Mer was less than 0.1 µM in each case.
Take `CCOc1cn(-c2ccc(F)c(CN(C)C)c2)nc1C(=O)Nc1ccc(Oc2ccnc3cc(OC)c(OC)cc23)cn1` [Compound 124]: the dissociation constant (Kd) at Axl and on Mer was less than 0.1 µM each time.
`COc1cc2nccc(Oc3ccc(NC(=O)c4nn(-c5ccc(F)cc5C)cc4OCC(F)(F)F)nc3)c2cc1OC` [Compound 203]: the equilibrium dissociation constant (Kd) at Axl and on Mer was less than 0.1 µM in each case.
For `CCOc1cn(-c2ccc(F)cc2C(C)C)nc1C(=O)Nc1ccc(Oc2ccnc3cc(OC)c(OC)cc23)cn1` [Compound 125], the Kd at Axl and on Mer was less than 0.1 µM throughout.
For `CCOc1cn(-c2ccc(Cl)cc2C(F)(F)F)nc1C(=O)Nc1ccc(Oc2ccnc3cc(OC)c(OC)cc23)cn1` [Compound 101], the Kd at Axl and at Mer was less than 0.1 µM each time.
In the case of `CCOc1cn(-c2ccc(C(F)(F)F)cc2F)nc1C(=O)Nc1ccc(Oc2ccnc3cc(OC)c(OC)cc23)cn1` [Compound 114], the Kd on Axl and on Mer was less than 0.1 µM throughout.
As to `CCOc1cn(-c2cccnc2)nc1C(=O)Nc1ccc(Oc2ccnc3cc(OC)c(OC(F)(F)F)cc23)cn1` [Compound 199], the dissociation constant Kd on Axl and at Mer was less than 0.1 µM in each case.
As for `CCOc1cn(-c2cnc(CO)nc2)nc1C(=O)Nc1ccc(Oc2ccnc3cc(OC)c(OC)cc23)cn1` [Compound 96], the dissociation constant (Kd) at Axl and at Mer was less than 0.1 µM each time.
As to `CCOc1cn(-c2cnccc2Cl)nc1C(=O)Nc1ccc(Oc2ccnc3cc(OC)c(OC)cc23)c(F)c1` [Compound 193], the dissociation constant (Kd) at Axl and on Mer was less than 0.1 µM throughout.
As for `CCOc1cn(-c2cnc(Cl)cn2)nc1C(=O)Nc1ccc(Oc2ccnc3cc(OC)c(OC)cc23)cn1` [Compound 169], the Kd on Axl and on Mer was less than 0.1 µM each time.
As for `CCOc1cn(-c2ccc(OC(F)(F)F)cc2Cl)nc1C(=O)Nc1ccc(Oc2ccnc3cc(OC)c(OC)cc23)cc1F` [Compound 192], the equilibrium dissociation constant (Kd) on Axl and on Mer was less than 0.1 µM in each case.
On to `CCOc1cn(-c2c(C)ccnc2C)nc1C(=O)Nc1ccc(Oc2ccnc3cc(OC)c(OC)cc23)cc1F` [Compound 191], for which the Kd at Axl and on Mer was less than 0.1 µM each time.
In the case of `CCOc1cn(-c2ccc(Cl)cc2F)nc1C(=O)Nc1ccc(Oc2ccnc3cc(OC)c(OC)cc23)cn1` [Compound 106], the dissociation constant Kd on Axl and on Mer was less than 0.1 µM throughout.
Regarding `CCOc1cn(-c2ccc(N)nc2)nc1C(=O)Nc1ccc(Oc2ccnc3cc(OC)c(OC)cc23)cn1` [Compound 6], the Kd on Axl and at Mer was less than 0.1 µM each time.
In the case of `CCOc1cn(-c2cncnc2C2CC2)nc1C(=O)Nc1ccc(Oc2ccnc3cc(OC)c(OC)cc23)cn1` [Compound 167], the Kd on Axl and on Mer was less than 0.1 µM in each case.
In the case of `CCOc1cn(-c2nccs2)nc1C(=O)Nc1ccc(Oc2ccnc3cc(OC)c(OC)cc23)cn1` [Compound 12], the dissociation constant (Kd) on Axl and on Mer was less than 0.1 µM in each case.
`CCOc1cn(-c2ccc(OC(F)(F)F)cc2Cl)nc1C(=O)Nc1ccc(Oc2ccnc3cc(OC)c(OC)cc23)c(F)c1` [Compound 189]: the equilibrium dissociation constant (Kd) on Axl and on Mer was less than 0.1 µM throughout.
